According to US9422254B2, “Methoxyacrylate-based fungicide and methods for preparing and using the same” (priority 2008, dated 2016):

Tests used:
Assay type in all cases: biochemical
[1] = molecular target: T1, cytochrome bc1 complex of pig heart (Sus scrofa, UniProt P24964); assay: Enzyme activity test, Complex III; settings: cytochrome bc1 complex of pig heart; read-out: IC50 (nM) Complex III
T1 construct: The test target is cytochrome bc1 complex of pig heart; from tissue; host or cells: pig heart
Procedure: (§1) Take NADH oxidase (NOX), succinate-cytochrome C oxidase (SCO), and Complex III as target enzymes, the inhibitory activity of the compound of Formula (I) was tested.
^b The test target is cytochrome bc1 complex of pig heart.

[2] = molecular target: NADH oxidase (NOX) (Sus scrofa, UniProt P24964); assay: Enzyme activity test, NOX
Procedure: as §1
(§2) ^a NOX is generally used to detect an inhibitor of Complex I and Complex III; SCO is generally used to detect an inhibitor of Complex II and Complex III. Thus, an inhibitor of Complex III should have inhibitory activity on the two enzymes.

[3] = molecular target: succinate-cytochrome C oxidase (SCO) (Sus scrofa, UniProt P24964); assay: Enzyme activity test, SCO
Procedure: as §1, §2

Sequence of succinate-cytochrome C oxidase (SCO) (P24964 whole entry): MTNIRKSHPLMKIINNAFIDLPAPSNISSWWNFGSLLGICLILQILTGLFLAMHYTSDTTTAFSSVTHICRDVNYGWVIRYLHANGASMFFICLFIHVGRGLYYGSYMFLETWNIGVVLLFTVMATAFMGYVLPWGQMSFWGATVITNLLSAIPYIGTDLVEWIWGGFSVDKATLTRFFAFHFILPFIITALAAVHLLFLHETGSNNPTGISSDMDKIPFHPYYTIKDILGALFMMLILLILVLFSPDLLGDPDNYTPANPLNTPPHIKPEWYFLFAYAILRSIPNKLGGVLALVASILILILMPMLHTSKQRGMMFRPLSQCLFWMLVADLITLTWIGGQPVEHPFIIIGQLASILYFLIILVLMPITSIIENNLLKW
Sequence of NADH oxidase (NOX) (P24964 whole entry): as above
T1 sequence (P24964 whole entry, one chain of several): as the sequence (P24964 whole entry) above

Q: What does the source list for `CO/C=C(/C(=O)OC)c1ccccc1Oc1cc(Oc2ccccc2C#N)ncn1` [Azoxystrobin, azoxystrobin, reference compound]?
A: IC50 [1]: 200 nM; IC50 [2]: 27 nM; IC50 [3]: 13 nM
